Test results reported in US20070203079A1, “Methods of using small molecule compounds for neuroprotection” (priority 2005, published 2007).
Structures can show the parent of a compound that is named as a salt. Marks after values point to notes of the source that are not given here.

Experiments:
[1] = system: Pdat-1::GFP+Pdat-1::α-synuclein+Pdat-1::torsinA worms; assay: α-synuclein toxicity assay, wt torsinA; format: in vivo, C. elegans
Excerpt: (§1) We have previously shown that torsinA can prevent dopamine (“DA”) neuron degeneration resulting from overexpression of α-synuclein in the DA neurons of C. elegans, while torsinA (“ΔE”) has a reduced neuroprotection (Cao et al., J Neurosci, 2005, 25(1): 3801-3812). Specifically, only 26.1±5.3% of the worms expressing Pdat-1::GFP+Pdat-1::α-synuclein maintained all 4 wildtype CEP DA neurons as 4 day adults while the percentages of the worms expressing Pdat-1::GFP+Pdat-1::α-synuclein+Pdat-1::torsinA and Pdat-1::GFP+Pdat-1::α-synuclein+Pdat-1:: torsinA (ΔE) are 57.3±1.6% and 42.2±7.3%, respectively (Cao et al., J Neurosci, 2005, 25(1): 3801-3812) (FIG. 8).
(§2) All molecules are coded by Prestwick Library number. TorsinA-dependent compounds identified from the aggregation assay have torsinA-specific effects and, therefore, are likely to function in the same manner in the α-synuclein toxicity assay. All three α-synuclein transgenic lines were exposed to the five torsinA-dependent compounds to determine their torsinA-specificity (FIG. 9). As expected, none of these compounds had any effect in Pdat-1::GFP+Pdat-1::α-synuclein when torsinA expression is absent.

[2] = system: worms containing Punc-54::Q82::GFP+Punc-54::torsinA+Punc54::torsinA (ΔE); assay: Screen for reduction of polyglutamine protein aggregates in worms with wt and mutant torsinA; format: in vivo, C. elegans; conditions: differentiated by Q82::GFP lines without torsinA, with wt torsinA or with mutant torsinA
Experimental: (§3) C elegans nematodes were grown at 20° C. on NGM plates as described by Brenner (Brenner, Genetics, 1974, 77: 71-94). Several transgenic C. elegans lines were used for primary screens of the Prestwick small molecule library. A transgenic worm line expressing Punc-54::Q82-GFP; with both wild type (“wt”) (Punc=54: :torsinA) or mutant (Punc-54::torsinA(ΔE)). Torsin-A expresses a phenotype that results in visible protein aggregation under fluorescent microscope. Transgenic worms were plated on drug plates and progeny were studied for a return to soluble protein.
(§4) Drugs were administered to C. elegans according to a standard procedure (Rand and Johnson, Methods Cell Biol, 1995, 48: 187-204), by mixing the solubilized drug with the agar medium on which the worms are grown. This mode of administration allows the continuous exposure of worms to the drug.
Each drug was first dissolved in an appropriate solvent, followed by adding the drug solution into pre-autoclaved media, with the volume of drug solution already taken into account. […] Each plate was seeded with 100 μl concentrated E. coli OP50 bacteria.
(§5) The screening assays used to identify the compounds use protein aggregation readouts to determine the specificities of molecular action. […]
(§6) The methods for the aggregate analysis assay are described in Caldwell et al. (Hum Mol Genetics, 2003, 12(3): 307-319). […] MetaMorph Software (Universal Imaging Inc.) was used for pseudocoloration of images, image overlay, and aggregate size quantitation. For each worm line analyzed, average aggregate size was determined by capturing images of all aggregates in the posterior region of 30 L3-staged animals (for Q82::GFP aggregates) or all aggregates in 30 adult animals/day (for Q19::GFP analyses) at 1000× magnification. […]
(§7) To see the effect of the candidate compounds on suppressing protein misfolding and aggregation, five gravid adult worms were placed onto each drug plate and grown at 20° C. for approximately 3 days. Thirty Fl worms at L3 stage and young adult stage were counted for aggregate number.

[3] = system: protein misfolding and aggregation in transgenic worms; assay: Preventative assay of protein aggregation (drug from hatching to L2 stage); format: in vivo, C. elegans; conditions: exposure from hatching to L2 stage; scored at L3 and young adult
Experimental: To see the preventative effects of the candidate drug compounds on protein misfolding and aggregation, five gravid adult worms were placed onto each drug plate and grown at 20° C. for approximately 3 days. 35-40 Fl worms at L2 stage were picked and transferred to a control plate with the same concentration of control solvent compared to the drug plate. Thirty worms at L3 stage were counted for aggregate number 8 hours later. Thirty young adults were analyzed 32 hours later.
To calculate the scaled effectiveness of special regimen of drugs on worms based on standardized decrease in protein aggregates. The following formula was used: (A−B)/(A−C)×100%, where
A=number of aggregates for worms growing on solvent control plates
B=number of aggregates for worms grown on the specific drug plate for the entire life of the worms
C=number of aggregates for worms that received pre-L2 exposure and were then removed to solvent control plates
If the regimen has no effect, the value would equal 0%. Conversely, if the regimen was as effective as raising the worms on the drug for their entire life, the value would equal 100%.

[4] = system: Pdat-1::GFP+Pdat-1::α-synuclein+Pdat-1:: torsinA (ΔE) worms; assay: α-synuclein toxicity assay, mutant torsinA; format: in vivo, C. elegans
Excerpt: as §1, §2

[5] = system: worms expressing Punc-54::Q82::GFP+Punc-54::torsinA with wt torsinA only; assay: Protein aggregate assay in worms with wt torsinA only; format: in vivo, C. elegans
Experimental: as §3, §4
Each drug was first dissolved in an appropriate solvent, followed by adding the drug solution into pre-autoclaved media, with the volume of drug solution already taken into account. […]
as §5, §6, §7

[6] = 1 gram/kg dose, fasting normal individual; cited from earlier work
[7] = system: transgenic worm line Pdat-1::CAT-2; assay: Neurodegeneration by overexpression of cat-2 (tyrosine hydroxylase); format: in vivo, C. elegans
Excerpt: Overexpression of cat-2, the worm homologue for tyrosine hydroxylase, results in increased intraneuronal dopamine production and a characteristic loss of dopaminergic neurons in 75% of transgenic worms as compared to wild type (Cao et al., J Neurosci, 25(1):3801-3812). Co-expression of worm or human torsin proteins reduces the loss of dopaminergic neurons to a slight degree although neuronal degeneration is still present. The purpose of these experiments was to determine the effect of small molecule compounds in the Prestwick library in another different C. elegans model of neurodegeneration.
Worms were cultured using the same methods described above. A transgenic worm line expressing Pdat-1::CAT-2 expresses a phenotype that results in visible neurodegeneration at all developmental stages in an integrated line, in which only approximately 55% of 7 day old animals maintained all four CEP neurons. […] Compound 166 is an example of one such compound.
To further examine the neuroprotective effect of meclofenamic acid and lidocaine, we used a transgenic line (Pdat-1::CAT-2) we previously described (Cao et al., J Neurosci, 2005, 25(1): 3801-3812). Overexpression of cat-2, the C. elegans homolog of the tyrosine hydroxylase (“TH”) gene, causes a high level of DA production and as a result, DA neuron degeneration is observed (Cao et al., J Neurosci, 2005, 25(1): 3801-3812). […] We also tested whether meclofenamic acid was able to suppress CAT-2-induced neurodegeneration. […] Therefore, meclofenamic acid can protect DA neurons from degeneration produced by overexpression of the dopamine precursor, tyrosine hydroxylase.

[8] = system: worms expressing Punc-54::Q82::GFP+Punc-54::torsinA (ΔE) with a mutant torsinA only; assay: Protein aggregate assay in worms with mutant torsinA only; format: in vivo, C. elegans
Experimental: C elegans nematodes were grown at 20° C. on NGM plates as described by Brenner (Brenner, Genetics, 1974, 77: 71-94). Several transgenic C. elegans lines were used for primary screens of the Prestwick small molecule library. A transgenic worm line expressing Punc-54::Q82-GFP; with both wild type (“wt”) (Punc=54: :torsinA) or mutant (Punc-54::torsinA(ΔE)). Torsin-A expresses a phenotype that results in visible protein aggregation under fluorescent microscope. Transgenic worms were plated on drug plates and progeny were studied for a return to soluble protein. […]
as §5, §6

GFP::DAT-1 = assay: Pdat-1::GFP::DAT-1 expression within DA neurons; format: in vivo, C. elegans; conditions: for Neurons with cell body and dendritic/axonal GFP: water control 70%; for Neurons with cell body and dendritic/axonal GFP / Mean pixel intensity of cell bodies ± SEM (fluorescence intensity): sodium salt; for Mean pixel intensity of cell bodies ± SEM (fluorescence intensity): water control 1970 ± 80, compounds at 1.85, 1.49, 1.86 mM
[9] = system: transgenic worms containing the transgene Pdat-1::GFP without any torsinA expression; assay: 6-OHDA dopaminergic neurodegeneration in worms without torsinA; format: in vivo, C. elegans; conditions: no torsinA expression
[10] = Pdat-1::GFP::DAT-1, listed as Meclofenamic acid sodium salt
[11] = Pdat-1::GFP::DAT-1, listed as meclofenamic acid

Row | SMILES | enhanced wild type DA neuron survival [1] | Specificity in worm assay [2] | preventative effect on protein aggregation [3] | enhanced DA neuron survival [4] | reduction of protein aggregation [5] | half-life [6] | neuroprotective effect against CAT-2-induced neurodegeneration ([7]; Pdat-1::CAT-2) [%] | neuroprotective action on dopaminergic neurons overexpressing cat-2 ([7]; Pdat-1::CAT-2, result in words) | reduction of aggregation [8] | Worms with no GFP (GFP::DAT-1; Pdat-1::GFP::DAT-1, water control 0%) [%] | Neurons with cell body GFP only (GFP::DAT-1; Pdat-1::GFP::DAT-1, water control 30%) [%^e] | Neurons with cell body and dendritic/axonal GFP (GFP::DAT-1; [10]) [%^d] | Neurons with cell body and dendritic/axonal GFP (GFP::DAT-1; [11]) [%] | Mean pixel intensity of cell bodies ± SEM (fluorescence intensity) (GFP::DAT-1; [10]) [A.U.] | Mean pixel intensity of cell bodies ± SEM (fluorescence intensity) (GFP::DAT-1; [11]) [A.U.] | effect on GFP::DAT-1 level (GFP::DAT-1; result in words) | reduction of 6-OHDA-mediated neurodegeneration [9]
1 | CCn1cc(C(=O)O)c(=O)c2ccc(C)nc21 [Compound 187, Nalidixic Acid] | 28.9±4.9% | wt torsinA | seem to be beneficial | no significant neuroprotection | reduced protein aggregation | about 90 minutes | – | – | – | – | – | – | – | – | – | – | –
2 | Cc1ccc(Cl)c(Nc2ccccc2C(=O)O)c1Cl [Compound 206, Meclofenamic acid sodium salt] | failed to show any significant neuroprotection | – | seem to be beneficial | 25±1.2% | – | – | 19±1.1 | demonstrated a reduction in the standardized decrease in dopaminergic neurodegeneration | reduced aggregation | 4.2 | 51.1 | 44.7 | 44.7 | 1740 ± 64 | 1740 | can down-regulate the level of DAT-1 protein directly | reduced the 6-OHDA-mediated neurodegeneration
